The record followed here is ChEMBL document CHEMBL1201862, “PubChem BioAssay data set” (2004).

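Each compound was tested at five concentrations against cells in 96-well plates for 48 hours. GI50: concentration for 50% inhibition of growth.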 Activity calls are given as the source filed them. No stated cut-off is given here; in the data, active = GI50 up to about 1.1 µM and inactive = higher.

Some test systems named below: 786-0; A498; A549; HCT-15; HOP-62; HT-29; IGROV-1; KM12; MDA-MB-231; NCI-H226; OVCAR-4; RXF 393; SF-295; SK-MEL-5; SN12C; SNB-19; SR; SW-620; U-251; Malme-3M.
Common to all, as to experiment: growth of human tumour cells (NCI), 48 h

For the compound `O=C(OCc1ccccc1)N1CCNCCN(C(=O)OCc2ccccc2)CCNCC1`, the GI50 in the test with 786-0 was 18.3 µM (inactive); in the test with A498 it was 27.5 µM (inactive); with A549, 63.2 µM (inactive); in the test with HCT-15, 32.5 µM; with HOP-62, 16.9 µM (inactive); in the test on HT-29, 17.7 µM (inactive). Besides, the GI50 is 32.2 µM (inactive) in the test on IGROV-1; 26 µM (inactive) in the test with KM12; 1.82 µM (inactive) with MDA-MB-231; 36.9 µM (inactive) in the test with NCI-H226; 40.4 µM (inactive) with OVCAR-4; 52.8 µM (inactive) in the test on RXF 393. Also, the GI50 is 23.9 µM (inactive) in the test with SF-295; 13.4 µM (inactive) with SK-MEL-5; 39.4 µM (inactive) in the test with SN12C; 47.5 µM (inactive) with SNB-19; 86.1 µM (inactive) in the test with SR; 32.1 µM (inactive) in the test on SW-620. For the same compound, the GI50 in the test with U-251 was 22 µM (inactive).
For the compound `COc1ccc(C2SCC(=O)N2NC(=O)C(C)Oc2ccc(Cl)cc2Cl)cc1` (stereo unspecified), the GI50 in the test on 786-0 is 20.3 µM (inactive); in the test on A498, 25 µM (inactive); in the test with A549, 31.6 µM (inactive); in the test on HCT-15 it was more than 100 µM; with HOP-62, 20.6 µM (inactive); with HT-29, > 100 µM (inactive). The GI50 with IGROV-1 was 37 µM (inactive); with KM12, 55.1 µM (inactive); in the test with MDA-MB-231 it was 26.7 µM (inactive); with NCI-H226, 16.4 µM (inactive); in the test with OVCAR-4, 23.6 µM (inactive); in the test with RXF 393, 25.6 µM (inactive). Moreover, the GI50 is 36.1 µM (inactive) with SF-295; 46.5 µM (inactive) in the test on SK-MEL-5; 41.7 µM (inactive) with SN12C; 35 µM (inactive) in the test with SNB-19; < 0.01 µM (active) in the test on SR; > 100 µM (inactive) in the test with SW-620. For the same compound, the GI50 in the test on U-251 is 33.7 µM (inactive).
As to `CO[C@]12C[C@H](CNC(=O)c3cc(Br)c(Br)[nH]3)O[C@H]1NC(=O)N2`, the GI50 in the test with 786-0 was > 100 µM (inactive); with A498, > 100 µM (inactive); in the test on A549, > 100 µM (inactive); with HCT-15, more than 100 µM; with HOP-62 it was > 100 µM (inactive); with HT-29, > 100 µM (inactive). Moreover, the GI50 with IGROV-1, in the test on KM12, in the test with MDA-MB-231, with Malme-3M, with NCI-H226 and in the test with OVCAR-4 was > 100 µM (inactive) in each case. Further, the GI50 with SF-295, in the test on SK-MEL-5, in the test on SN12C, in the test on SNB-19, with SR and in the test with SW-620 was > 100 µM (inactive) throughout. The GI50 in the test on U-251 is > 100 µM (inactive).
In the case of `O=Cc1cccc2c1Oc1c(cccc1C(=O)O)S2`, the GI50 in the test on 786-0 was 76.2 µM (inactive); in the test with A498, > 100 µM (inactive); in the test on A549 it was 23.6 µM (inactive); in the test on HCT-15, 35.4 µM; in the test on HOP-62, 49.9 µM (inactive); with HT-29, > 100 µM (inactive). Besides, the GI50 in the test with IGROV-1 is > 100 µM (inactive); in the test on KM12, 13.7 µM (inactive); with MDA-MB-231, > 100 µM (inactive); in the test with Malme-3M, 81.3 µM (inactive); in the test on NCI-H226 it was > 100 µM (inactive); in the test with OVCAR-4 it was 98.4 µM (inactive). Also, the GI50 in the test with SF-295 was 52.7 µM (inactive); with SK-MEL-5, 67.1 µM (inactive); in the test on SN12C it was 85.3 µM (inactive); with SNB-19, 87.7 µM (inactive); in the test on SR, < 0.01 µM (active); in the test with SW-620, > 100 µM (inactive). In addition, the GI50 in the test on U-251 was 62.7 µM (inactive).
Turning to `CSC1=N/C(=C\c2ccc(Cl)cc2)C(=O)N1CN1CCCCC1`, the GI50 in the test with 786-0 is 42.8 µM (inactive); in the test on A498 it was 17.7 µM (inactive); in the test on A549, 42.4 µM (inactive); with HCT-15, 25.9 µM; with HOP-62, 20.4 µM (inactive); with HT-29 it was 35.6 µM (inactive). Besides, the GI50 in the test on IGROV-1 is 7.38 µM (inactive); in the test with KM12, 49.5 µM (inactive); with MDA-MB-231, 42.1 µM (inactive); in the test with Malme-3M, 25.5 µM (inactive); with NCI-H226 it was > 100 µM (inactive); in the test with SF-295 it was 35.5 µM (inactive). Further, the GI50 in the test on SK-MEL-5 was 32.4 µM (inactive); in the test with SN12C, 67.5 µM (inactive); in the test on SR, 25 µM (inactive); in the test with SW-620 it was 34.9 µM (inactive); in the test with U-251, 47.8 µM (inactive).
On to `CC(=O)OCC1OC(SC2=N/C(=C\c3ccc(Br)s3)C(=O)N2CN2CCOCC2)C(OC(C)=O)C(OC(C)=O)C1OC(C)=O` (stereo unspecified), for which the GI50 in the test on 786-0 is 16.7 µM (inactive); in the test with A498, 20.5 µM (inactive); with HCT-15, 16.6 µM; with HOP-62, 23 µM (inactive); with HT-29, 15.5 µM (inactive); with IGROV-1, 16.8 µM (inactive). The GI50 with KM12 is 17.2 µM (inactive); in the test on MDA-MB-231, 26.7 µM (inactive); in the test with Malme-3M, 16.5 µM (inactive); with NCI-H226 it was 11.3 µM (inactive); with OVCAR-4 it was 29.4 µM (inactive); with SF-295, 19.5 µM (inactive). The GI50 in the test with SK-MEL-5 was 19.1 µM (inactive); in the test on SN12C, 13.6 µM (inactive); with SNB-19, 19.9 µM (inactive); with SR, 12.6 µM (inactive); with SW-620 it was 14.9 µM (inactive); in the test with U-251, 16.3 µM (inactive).
Take `COC(=O)CN(CC1O[C@@H]2OC(C)(C)O[C@@H]2C1NC(C)=O)C(=O)OCc1ccccc1` (stereo partly specified): the GI50 in the test with 786-0 is > 100 µM (inactive); with A498 it was > 100 µM (inactive); in the test on A549 it was > 100 µM (inactive); with HCT-15 it was more than 100 µM; with HOP-62 it was > 100 µM (inactive); with HT-29, > 100 µM (inactive). The GI50 in the test on IGROV-1, in the test with KM12, with MDA-MB-231, in the test on NCI-H226, in the test on OVCAR-4 and with SF-295 was > 100 µM (inactive) each time. The GI50 with SK-MEL-5, with SN12C, with SNB-19, with SR, in the test on SW-620 and in the test with U-251 was > 100 µM (inactive) each time.
Consider `COc1ccc(/N=N/C(=N\c2ccccc2)c2ccc(N(CCC#N)CCC#N)cc2)cc1`, for which the GI50 with 786-0 was 60.4 µM (inactive); in the test on A498, 67.6 µM (inactive); in the test on A549, 49.2 µM (inactive); with HCT-15 it was 81.3 µM; with HOP-62 it was 89.5 µM (inactive); with HT-29, 47.9 µM (inactive). Moreover, the GI50 was 23.4 µM (inactive) in the test with IGROV-1; 26 µM (inactive) in the test with KM12; 22.9 µM (inactive) with MDA-MB-231; > 100 µM (inactive) in the test with NCI-H226; 45.3 µM (inactive) in the test with OVCAR-4; 19.9 µM (inactive) with RXF 393. In addition, the GI50 was 31.2 µM (inactive) in the test with SF-295; 47.1 µM (inactive) with SK-MEL-5; 88.9 µM (inactive) in the test with SN12C; > 100 µM (inactive) in the test with SNB-19; 25.9 µM (inactive) with SR; > 100 µM (inactive) in the test on SW-620. Besides, the GI50 with U-251 is 31.4 µM (inactive).
Turning to `CC(=O)O[C@H]1CC[C@@]2(C)C(=CC[C@@H]3[C@@H]2CC[C@]2(C)c4c(C)nn(-c5ccccc5)c4C[C@@H]32)C1`, the GI50 in the test on 786-0 is 13.6 µM (inactive); in the test on A498, 24 µM (inactive); in the test on A549, 35.9 µM (inactive); in the test with HCT-15 it was 37.1 µM; in the test with HOP-62, 15.5 µM (inactive); in the test with HT-29, 11.5 µM (inactive). Besides, the GI50 in the test on IGROV-1 is 43.4 µM (inactive); in the test with KM12 it was 23 µM (inactive); in the test on MDA-MB-231, 25.1 µM (inactive); in the test on NCI-H226, 36.6 µM (inactive); in the test on OVCAR-4, 72.6 µM (inactive); in the test with RXF 393 it was 5.42 µM (inactive). The GI50 with SF-295 is 3.55 µM (inactive); in the test on SK-MEL-5, 37.2 µM (inactive); with SN12C it was 33.3 µM (inactive); with SNB-19, 31 µM (inactive); with SR, 13 µM (inactive); with SW-620, 33.5 µM (inactive). Also, the GI50 in the test with U-251 is 20.7 µM (inactive).
For the compound `Cc1ccc2nc(Cl)c(/C=N/N3C(=O)/C(=C/c4ccccc4S)N=C3c3ccccc3)cc2c1`, the GI50 in the test on 786-0 was 54 µM (inactive); in the test on A498, 29.5 µM (inactive); in the test on A549, 33.4 µM (inactive); in the test with HCT-15, 37.8 µM; in the test with HOP-62, 27.7 µM (inactive); in the test on HT-29, 42.8 µM (inactive). The GI50 is 29.1 µM (inactive) with IGROV-1; 25.5 µM (inactive) in the test with KM12; > 100 µM (inactive) in the test on MDA-MB-231; 29.6 µM (inactive) in the test on OVCAR-4; 25.3 µM (inactive) in the test on SF-295; 31.6 µM (inactive) in the test on SK-MEL-5. Also, the GI50 with SN12C was 35.7 µM (inactive); in the test on SNB-19, 52.8 µM (inactive); in the test on SR it was 7.96 µM (inactive); in the test with SW-620, 39.2 µM (inactive); with U-251 it was 28.1 µM (inactive).
For the compound `CCOC(=O)c1c(NC(=O)c2ccc(OC)cc2)sc2c1CCCC2`, the GI50 in the test with 786-0, with A498, in the test on A549, with HOP-62, in the test with HT-29 and in the test on IGROV-1 was > 100 µM (inactive) each time. Also, the GI50 in the test with KM12, in the test with MDA-MB-231, with NCI-H226, in the test on RXF 393, with SF-295 and in the test on SK-MEL-5 was > 100 µM (inactive) throughout. For the same compound, the GI50 in the test on SN12C, in the test on SNB-19, with SR, in the test with SW-620 and in the test with U-251 was > 100 µM (inactive) throughout.
